Measured values published in patent US12318373B2, “Methods of treating gastrointestinal stromal tumors” (Deciphera Pharmaceuticals, LLC, priority 2019, dated 2025).

How the values were obtained:
[1] = Example 8: coadministration with proton-pump inhibitor (pantoprazole), exposure; type: in vivo
Description: The effect of a proton-pump inhibitor on the exposure of ripretinib was evaluated.

[2] = Example 9: food effect (high-fat meal) on exposure; type: in vivo
Description: The effect of a high-fat breakfast on ripretinib and Compound A exposure was evaluated. A high fat meal consisted of approximately 150, 250, and 500-600 calories from protein, carbohydrate, and fat, respectively. […] Therefore, ripretinib may be taken with or without food at approximately same time each day.

advanced GIST = assay: Example 2: randomized, double-blind, placebo-controlled study, efficacy (PFS, ORR, OS); type: in vivo, human; settings: for PFS by BICR: events, % / PFS by BICR: number of events: N = 85
From the text: Example 2. A Randomized, Double-blind, Placebo-controlled, International, Multicenter Study to Evaluate the Safety, Tolerability, and Efficacy of Ripretinib Compared to Placebo in Patients with Advanced GIST Whose Previous Therapies Have Included Imatinib, Sunitinib, and Regorafenib
(§1) This study was a randomized (2:1), double-blind, placebo-controlled, international, multicenter study to evaluate the safety, tolerability, and efficacy of ripretinib compared to placebo in 129 patients with advanced GIST whose previous therapies have included at least imatinib, sunitinib, and regorafenib. Patients were randomized 2:1 to either 150 mg of ripretinib or placebo once daily. The primary efficacy endpoint is progression-free survival (PFS) as determined by independent radiologic review using modified Response Evaluation Criteria in Solid Tumors (RECIST). Secondary endpoints as determined by independent radiologic review using modified RECIST include Objective Response Rate (ORR), Time to Tumor Progression (TTP) and Overall Survival (OS).
Patients whose disease progressed during the double blind phase of the study were escalated to 150 mg BID ripretinib, continued at the 150 mg QD dose, or discontinued in an open label-phase of the study.

GIST = assay: Example 3: clinical study in second-line through fourth-line plus GIST, efficacy at ≥100 mg daily; type: in vivo, human; settings: for Objective Response Rate by Best Response Includes Unconfirmed: RECIST 1.1, investigator-assessed
Description: Results. Data from 178 GIST patients receiving ripretinib at doses of ≥100 mg daily are noted in Table 2. The table includes investigator-assessed objective response rate (ORR) by best response, disease control rate (DCR) and median progression free survival (mPFS), all of which were determined by Response Evaluation Criteria in Solid Tumors (RECIST) version 1.1.

[3] = Example 7: coadministration with strong CYP3A inhibitor (itraconazole), exposure; type: in vivo; settings: coadministration of ripretinib with itraconazole
[4] = tested on: patients with advanced GIST; assay: Example 2/6: safety, treatment-emergent adverse events; type: in vivo, human
Description: as §1
Grade 3 or 4 treatment-emergent adverse events (TEAEs) occurred in 42 (49%) patients on the ripretinib arm compared to 19 (44%) on the placebo arm. Grade 3 or 4 TEAEs>5% of patients in the ripretinib arm were anemia (9%; n=8), abdominal pain (7%; n=6) and hypertension (7%; n=6). Grade 3 or 4 TEAEs>5% of patients in the placebo arm were anemia (14%; n=6). Table 1 lists TEAEs>15% in the ripretinib arm compared to placebo.
The safety of ripretinib and the impact of alopecia and palmar-plantar erythrodysesthesia (PPES) on patient-reported outcomes (PROs) of patients treated in the study described in Example 2 herein are described. […] When stratified by alopecia and PPES, patient reported assessments of function, overall health, and overall quality of life were maintained over time.

[5] = 150 mg dose with a high-fat meal
[6] = 150 mg once daily, BICR, modified RECIST 1.1

CCn1c(=O)c(-c2cc(NC(=O)Nc3ccccc3)c(F)cc2Br)cc2cnc(NC)cc21 [ripretinib]
Effect on ripretinib exposure ([1]; 40 mg QD pantoprazole with 150 mg QD ripretinib): did not affect | Difference in plasma exposure ([1]; ripretinib coadministered with pantoprazole): No clinically significant differences | AUC0-24h higher by [2, 5]: 30% | Cmax higher by [2, 5]: 22% | Clinical significance of the food effect ([2]; based on exposure-response analysis): not considered to be clinically significant | Benefit over placebo (PFS, OS), primary Exon 11 and Exon 9 mutation (advanced GIST; 150 mg QD, FIGS. 17A, 17B): derive a benefit | OS hazard ratio (HR) vs placebo (advanced GIST; 150 mg once daily): 0.36 | OS rate at 12 months (advanced GIST; 150 mg once daily): 65.4% | PFS hazard ratio (HR) compared to placebo (advanced GIST; 150 mg once daily): 0.15 | PFS rate at 6 months (advanced GIST; 150 mg once daily): 51% | Patients with PD, % (advanced GIST; 150 mg once daily): 18.8% | Patients with PD, number (advanced GIST; 150 mg once daily): 16 | Patients with stable disease (SD) for 12 weeks, number (advanced GIST; 150 mg once daily): 40 | Reduction of risk of disease progression or death compared to placebo (advanced GIST; 150 mg once daily): 85% | Median PFS (advanced GIST; [6]): 6.3 months | Objective response rate (ORR) (advanced GIST; [6]): 9.4% | Median PFS (advanced GIST; 150 mg once daily, initial ripretinib arm): 27.6 weeks | Median OS (advanced GIST; 150 mg once daily, patients initially randomized to ripretinib): 15.1 months | PFS compared to placebo in subgroups with Exon 9, 11, 13 or 17 KIT mutations (advanced GIST; FIG. 26A-D): PFS benefit in all assessed patient subgroups | PFS by BICR: events, % (advanced GIST; double-blind cut): (60) % | PFS by BICR: number of events (advanced GIST; double-blind cut): 51 | PFS by BICR: events, % (advanced GIST; open-label cut): (75) % | PFS by BICR: number of events (advanced GIST; open-label cut): 64 | Median OS (advanced GIST; double-blind cut): 15 months | Median PFS by BICR (advanced GIST; double-blind cut): 6.3 months | OS hazard ratio (advanced GIST; double-blind cut): 0.36 | Overall Response Rate by BICR (advanced GIST; double-blind cut): 9% | Overall Survival: deaths, % (advanced GIST; double-blind cut): (31) % | Overall Survival: number of deaths (advanced GIST; double-blind cut): 26 | PFS by BICR: deaths, % (advanced GIST; double-blind cut): (6) % | PFS by BICR: deaths, number (advanced GIST; double-blind cut): 5 | PFS by BICR: progressive disease, % (advanced GIST; double-blind cut): (54) % | PFS by BICR: progressive disease, number (advanced GIST; double-blind cut): 46 | PFS hazard ratio (advanced GIST; double-blind cut): 0.15 | Median OS (advanced GIST; open-label cut): Not Reached | Median PFS by BICR (advanced GIST; open-label cut): 6.3 months | OS hazard ratio (advanced GIST; open-label cut): 0.43 | Overall Response Rate by BICR (advanced GIST; open-label cut): 12% | Overall Survival: deaths, % (advanced GIST; open-label cut): (45) % | Overall Survival: number of deaths (advanced GIST; open-label cut): 38 | PFS by BICR: deaths, % (advanced GIST; open-label cut): (7) % | PFS by BICR: deaths, number (advanced GIST; open-label cut): 6 | PFS by BICR: progressive disease, % (advanced GIST; open-label cut): (68) % | PFS by BICR: progressive disease, number (advanced GIST; open-label cut): 58 | PFS hazard ratio (advanced GIST; open-label cut): 0.16 | Median PFS (advanced GIST; patients crossed over from placebo to ripretinib): 20.0 weeks | Median OS (advanced GIST; patients who crossed over from placebo to ripretinib): 11.6 months | Disease Control Rate at 3 Months (GIST; Fourth-Line (n = 60)): 73% | Median Progression Free Survival (mPFS) (GIST; Fourth-Line (n = 60)): 30 weeks | Objective Response Rate by Best Response (Confirmed Only) (GIST; Fourth-Line (n = 60)): (8%) | Objective Response Rate by Best Response Includes Unconfirmed (GIST; Fourth-Line (n = 60)): 15% | Disease Control Rate at 3 Months (GIST; Second-Line (n = 37)): 81% | Median Progression Free Survival (mPFS) (GIST; Second-Line (n = 37)): 42 weeks | Objective Response Rate by Best Response (Confirmed Only) (GIST; Second-Line (n = 37)): (22%) | Objective Response Rate by Best Response Includes Unconfirmed (GIST; Second-Line (n = 37)): 30% | Disease Control Rate at 3 Months (GIST; Third-Line (n = 31)): 80% | Median Progression Free Survival (mPFS) (GIST; Third-Line (n = 31)): 40 weeks | Objective Response Rate by Best Response (Confirmed Only) (GIST; Third-Line (n = 31)): (13%) | Objective Response Rate by Best Response Includes Unconfirmed (GIST; Third-Line (n = 31)): 23% | Disease Control Rate at 3 Months (GIST; ≥Fourth-Line (n = 110)): 66% | Median Progression Free Survival (mPFS) (GIST; ≥Fourth-Line (n = 110)): 24 weeks | Objective Response Rate by Best Response (Confirmed Only) (GIST; ≥Fourth-Line (n = 110)): (7%) | Objective Response Rate by Best Response Includes Unconfirmed (GIST; ≥Fourth-Line (n = 110)): 11% | Increase in AUC0-inf [3]: 99% | Increase in Cmax [3]: 36% | Alopecia in females (females vs males) ([4]; female, human, in vivo): 56.8% | Grade 3 or 4 abdominal pain: patients, % ([4]; human, in vivo): 7% | Grade 3 or 4 abdominal pain: patients, number ([4]; human, in vivo): 6 | Grade 3 or 4 anemia: patients, number ([4]; human, in vivo): 8 | Grade 3 or 4 hypertension: patients, % ([4]; human, in vivo): 7% | Grade 3 or 4 hypertension: patients, number ([4]; human, in vivo): 6 | Patients with a TEAE leading to dose interruption ([4]; human, in vivo): 23.5% | Patients with a TEAE leading to dose reduction ([4]; human, in vivo): 7.1% | Grade 3/4 alopecia ([4]; in vivo): no patients | Grade 3 PPES ([4]; in vivo): no patients | Overall safety and tolerability profile ([4]; in vivo): favorable overall safety and tolerability profile | Serious adverse events of alopecia or PPES ([4]; in vivo): no serious adverse events | TEAEs during the crossover period ([4]; in vivo): no safety concerns | Alopecia in males (females vs males) ([4]; male, human, in vivo): 43.2% | Patients with a TEAE leading to death ([4]; ripretinib arm): 5.9%
